# Data: EPA's ToxValDB 9.5
# Test system: Rattus norvegicus
# Settings: oral
# [1] = subchronic, gavage, M, Sprague-Dawley, Relative Organ Weight: Liver increase
# [2] = subchronic, gavage, M, Sprague-Dawley, Deaths + Clinical Observation: Salivation Abnormal resp. noise Irregular respiration Loose stool DiarrheaSoiled fur, nasal/urogenital region…
compound,measurement,setting,value
"CCCCC(CC)COC(=O)C1CC=CCC1C(=O)OCC(CC)CCCC (stereo not drawn) [Bis(2-ethylhexyl) 4-cyclohexene-1,2-dicarboxylate]",NOEL,"subchronic, duration: 42 days, gavage, M, CD(SD), Hematology: WBC decrease, LYMPH decrease, NEUT decrease, Large unstained cell decrease + Absolute Organ Weight: Kidney increase + Relative …",100 mg/kg-day
CC1CC(CC2CCC(N)C(C)C2)CCC1N (stereo not drawn) [Bis(4-amino-3-methylcyclohexyl)methane],NOAEL,"subchronic, duration: 90 days, gavage, M/F, Wistar, Deaths: None (There were dead animals due to the intubation error) + Clinical Observation: Deteriorated general state Discolored body region…",2.5 mg/kg-day
[Bi] [Bismuth],NOEL,"short-term, duration: 28 days, gavage, Crj:CD",1000 mg/kg-day
COc1cc(-c2ccc(N)c(OC)c2)ccc1N.Cl.Cl [C.I. Disperse Black 6 dihydrochloride],NOEL,"subchronic, duration: 13 weeks, drinking water, M/F, Fischer 344, Body Weight Changes: decrease + Water Consumption: decrease + Hematology: WBC decrease, Lympho decrease, Hct decrease, RBC decrease + Blood …",< 170 mg/kg-day
Nc1ccc(N)c2c1C(=O)c1c(N)ccc(N)c1C2=O [C.I. Disperse Blue 1],NOEL,"subchronic, duration: 13 weeks, diet, M/F, Fischer 344, Deaths + Body Weight Changes: decrease + Histopathology: Kidneys-Calculi Urinary bladder a""Inflammation Urinary bladder a""Transitional …",115 mg/kg-day
[Cl-].[Cs+] [Caesium chloride],NOEL,"subchronic, duration: 90 days, gavage, M/F, Sprague-Dawley, Deaths + Clinical Observation: Irritability Convulsion, preening Locomotor activity increase + Body Weight Changes: decrease + Food …",< 10 mg/kg-day
COc1ccc2c3c1O[C@H]1[C@@H](O)C=C[C@H]4[C@@H](C2)N(C)CC[C@@]341 [Codeine],NOEL,"subchronic, duration: 13 weeks, diet, F, Fischer 344, Deaths + Clinical Observation: Ruffled fur AlopeciaAbnormal posture + Body Weight Changes: decrease + Hematology: RBC decrease, Plt decrease…",< 25 mg/kg-day
same,NOEL,"subchronic, duration: 13 weeks, diet, M/F, Fischer 344, Deaths + Clinical Observation: Ruffled fur AlopeciaAbnormal posture + Body Weight Changes: decrease + Hematology: RBC decrease, Plt decrease…",< 37.4 mg/kg-day
O=c1ccc2ccccc2o1 [Coumarin],NOEL,"subchronic, duration: 13 weeks, gavage, M/F, Fischer 344, Deaths + Body Weight Changes: decrease + Hematology: RBC increase + Blood Chemistry: Ch E decrease, Cl decrease, TP increase, Alb increase, …",< 19 mg/kg-day
"CC(C)(O)C1CCCCC1 [Cyclohexanemethanol, .alpha.,.alpha.-dimethyl-]",NOEL,"short-term, duration: 28 days, gavage, M/F, Clinical Observation: Salivation + Blood Chemistry: GLUC decrease, TP increase, CRN decrease, BIL increase, T-CHO increase + Absolute Organ …",< 8 mg/kg-day
O=C1c2ccccc2C(=O)C1c1ccc2ccccc2n1 [D & C Yellow 11],NOEL,"subchronic, diet, F, Fischer 344, Body Weight Changes: decrease + Absolute Organ Weight: Liver increase, Lung increase + Relative Organ Weight: Liver increase, Lung increase…",< 37 mg/kg-day
same,NOEL,"subchronic, diet, M/F, Fischer 344, Body Weight Changes: decrease + Absolute Organ Weight: Liver increase, Lung increase + Relative Organ Weight: Liver increase, Lung increase…",< 48 mg/kg-day
CC(Cl)(Cl)C(=O)[O-].[Na+] [Dalapon-sodium],NOEL,"subchronic, gavage, M, Sprague-Dawley, Blood Chemistry: TP decrease, BUN increase",300 mg/kg-day
c1ccc2c(c1)sc1ccccc12 [Dibenzothiophene],NOEL,"short-term, duration: 28 days, gavage, M/F, Sprague-Dawley, Clinical Observation: Salivation Soiled perigenital fur + Functional Observational Battery: Locomotor activity decrease + Body Weight …",3 mg/kg-day
COc1cc(COC(=O)CCCCCCC(C)C)ccc1O [Dihydrocapsiate],NOEL,"subchronic, gavage, M/F, Crj:CD, Blood Chemistry: ALT increase, Ca increase, Alb increase, TP increase + Absolute Organ Weight: Liver increase + Relative Organ Weight: Liver…",300 mg/kg-day
[CH3][Sn]([CH3])([Cl])[Cl] [Dimethyltin dichloride],NOAEL,"subchronic, duration: 90 days, drinking water, M/F, Sprague-Dawley, Deaths + Clinical Observation: Died or sacrificed with poor condition (All remaining animals were sacrificed by week 6) Dehydration …",< 3.8 mg/kg-day
CCCCCCC[CH2][Sn]([CH2]CCCCCCC)([S]CC(=O)OCC(CC)CCCC)[S]CC(=O)OCC(CC)CCCC (stereo not drawn) [Dioctyltinbis(2-ethylhexyl mercaptoacetate)],NOAEL,"subchronic, duration: 90 days, diet, M/F, Wistar, Deaths + Body Weight Changes: Mean body weight decrease + Food Consumption: decrease + Urinalysis: SG decrease, GOT increase + Hematology: …",0.96 mg/kg-day
COCC(C)OCC(C)O (stereo not drawn) [Dipropylene glycol monomethyl ether],NOAEL,"short-term, duration: 28 days, gavage, M/F, Sprague-Dawley, Clinical Observation: Tentative salivation + Relative Organ Weight: Liver increase + Histopathology: Liver-Centrilobular hypertrophy",200 mg/kg-day
C=CC(=O)OCC [Ethyl acrylate],NOAEL,"subchronic, duration: 90 days, gavage, M, Fischer 344, Necropsy: Small intestine: Reddening, duodenal mucosa Stomach: Prominent blood vessel, cardiac region",55 mg/kg-day
CN1CCN(c2c(F)cc3c(=O)c(C(=O)O)cn(CCF)c3c2F)CC1 [Fleroxacin],NOEL,"chronic, duration: 91 days, gavage, M/F, Wistar, Deaths + Clinical Observation: Piloerection + Body Weight Changes: Body weight decrease, Body weight gain decrease + Food Consumption: …",45 mg/kg-day
COc1ccc(C[C@@H](C)NC[C@H](O)c2ccc(O)c(NC=O)c2)cc1.COc1ccc(C[C@@H](C)NC[C@H](O)c2ccc(O)c(NC=O)c2)cc1.O=C(O)/C=C/C(=O)O [Formoterol hemifumarate],NOEL,"subchronic, duration: 35 days, gavage, F, Sprague-Dawley, Deaths + Clinical Observation: Tachycardia Tachypnea Salivation + Body Weight Changes: Body weight gain decrease + Blood Chemistry: GLUC …",0.3 mg/kg-day
same,NOEL,"subchronic, duration: 35 days, gavage, M, Sprague-Dawley, Deaths + Clinical Observation: Tachycardia Tachypnea Salivation + Body Weight Changes: Body weight gain decrease + Blood Chemistry: GLUC …",0.03 mg/kg-day
O=[N+]([O-])c1ccc(NCCO)c(OCCO)c1 [HC Yellow 4],NOEL,"subchronic, duration: 13 weeks, diet, M/F, Fischer 344, Body Weight Changes: decrease + Relative Organ Weight: Right kidney increase, Liver increase, Lungs increase, Thymus increase, Testis …",< 240 mg/kg-day
"CC(C)(C)NN.Cl [Hydrazine, (1,1-dimethylethyl)-, monohydrochloride]",NOEL,"subchronic, gavage, M, Sprague-Dawley, Hematology: RBC decrease, Hgb decrease, Hct decrease, MCHC decrease, MCV increase, MCH increase, R RET increase, R + Absolute Organ Weight…",4 mg/kg-day
C=CC(=O)OCCCCCCCCCCCC [Lauryl acrylate],NOAEL,[1],1000 mg/kg-day
same,NOEL,[1],300 mg/kg-day
CCn1cc(C(=O)O)c(=O)c2cc(F)c(N3CCNC(C)C3)c(F)c21.Cl (stereo not drawn) [Lomefloxacin hydrochloride],NOEL,"chronic, duration: 91 days, gavage, M/F, Sprague-Dawley, Deaths + Clinical Observation: Prone position(dead animals) Hypothermia(dead animals) Lid closure(dead animals) Clonic convulsion(dead …",30 mg/kg-day
N#CSCSC#N [Methylene bis(thiocyanate)],NOEL,"subchronic, gavage, F, Fischer 344, Deaths + Clinical Observation: Abnormal respiratory sounds Reddish tear Hunched posture Dyspnea + Hematology: Hct decrease, Hgb decrease, …",2 mg/kg-day
same,NOEL,"subchronic, gavage, M, Fischer 344, Deaths + Clinical Observation: Abnormal respiratory sounds Reddish tear Hunched posture Dyspnea + Hematology: Hct decrease, Hgb decrease, …",1 mg/kg-day
COC(=O)C(c1ccccc1)C1CCCCN1.Cl (stereo not drawn) [Methylphenidate hydrochloride],NOEL,"subchronic, duration: 13 weeks, diet, F, Fischer 344, Body Weight Changes: decrease + Food Consumption: decrease + Absolute Organ Weight: Brain increase, Liver increase + Relative Organ Weight: …",18 mg/kg-day
same,NOEL,"subchronic, duration: 13 weeks, diet, M/F, Fischer 344, Body Weight Changes: decrease + Food Consumption: decrease + Absolute Organ Weight: Brain increase, Liver increase + Relative Organ Weight: …",24 mg/kg-day
O=c1c(O)c(-c2ccc(O)cc2O)oc2cc(O)cc(O)c12 [Morin],NOEL,"subchronic, diet, F, Fischer 344, Body Weight Changes: decrease + Hematology: WBC increase + Blood Chemistry: BUN increase , TP decrease, TG decrease , Alb increase , Cho …",356 mg/kg-day
same,NOEL,"subchronic, diet, M/F, Fischer 344, Body Weight Changes: decrease + Hematology: WBC increase + Blood Chemistry: BUN increase , TP decrease, TG decrease , Alb increase , Cho …",0.625%
"O=C1C=CC(=O)N1c1cccc(N2C(=O)C=CC2=O)c1 [N,N'-1,3-Phenylenedimaleimide]",NOAEL,[2],15 mg/kg-day
same,NOEL,[2],< 15 mg/kg-day
"CO[Si](CCCNCCN)(OC)OC [N-[3-(Trimethoxysilyl)propyl]ethane-1,2-diamine]",NOAEL,"short-term, duration: 28 days, gavage, M, Sprague-Dawley, Clinical Observation: Perioral soiling Increased nasal sounds Labored respiration Soft vocalization",500 mg/kg-day
O=c1[nH]c2ccccc2n1CCCN1CCN(C(c2ccccc2)c2ccccc2)CC1 [Oxatomide],NOEL,"subchronic, duration: 30 days, gavage, M/F, Wistar, Deaths + Clinical Observation: Tremor HypersensitivityPiloerection + Body Weight Changes: Body weight gain decrease + Food Consumption: …",40 mg/kg-day
Cl.O=C(O)/C=C/c1ccc(Cn2ccnc2)cc1 [Ozagrel hydrochloride],NOEL,"short-term, duration: 28 days, gavage, M/F, Sprague-Dawley, Deaths + Clinical Observation: Locomotor activity decrease, Respiration rate increase + Body Weight Changes: decrease + Food Consumption: …",625 mg/kg-day
CC(C)(Sc1cc(C(C)(C)C)c(O)c(C(C)(C)C)c1)Sc1cc(C(C)(C)C)c(O)c(C(C)(C)C)c1 [Probucol],NOAEL,"chronic, duration: 91 days, gavage, Sprague-Dawley",> 2250 mg/kg-day
O=C([O-])C1=Cc2sc(Cn3ccnc3)cc2CC1.[Na+] [RS 5186],NOAEL,"subchronic, duration: 90 days, gavage, M/F, CD, Clinical Observation: Salivation Chylous or dark red-brown urine + Absolute Organ Weight: Liver increase + Relative Organ Weight: Liver …",30 mg/kg-day
C[C@@H](NCCc1ccc(O)cc1)[C@@H](O)c1ccc(O)cc1.Cl [Ritodrine hydrochloride],NOEL,"subchronic, duration: 35 days, gavage, M/F, Sprague-Dawley, Deaths + Clinical Observation: Locomotor activity decrease, Increased respiration rate Deep respiration Prone, lateral, or supine position …",32 mg/kg-day
O=[Se](=O)([O-])[O-].[Na+].[Na+] [Sodium selenate],NOEL,"subchronic, drinking water, F, Fischer 344, Deaths + Body Weight Changes: decrease + Hematology: Hct increase, Hgb increase, RBC increase + Blood Chemistry: BUN increase ALT increase, …",0.31 mg/kg-day
same,NOEL,"subchronic, drinking water, M/F, Fischer 344, Deaths + Body Weight Changes: decrease + Hematology: Hct increase, Hgb increase, RBC increase + Blood Chemistry: BUN increase ALT increase, …",0.57 mg/kg-day
O=C1CCC(=O)O1 [Succinic anhydride],NOEL,"subchronic, duration: 13 weeks, gavage, M/F, Fischer 344, Deaths + Clinical Observation: Lethargy Distended abdomens + Body Weight Changes: decrease + Absolute Organ Weight: Liver increase + …",50 mg/kg-day
Nc1ccc(S(N)(=O)=O)cc1 [Sulfanilamide],NOEL,"short-term, duration: 28 days, gavage, M/F, Sprague-Dawley, Clinical Observation: Salivation + Functional Observational Battery: Auditory response decrease, Disappearance, aerial righting reflex …",50 mg/kg-day
O=C(O)c1cc(N=Nc2ccc(S(=O)(=O)Nc3ccccn3)cc2)ccc1O [Sulfasalazine],NOEL,"subchronic, duration: 13 weeks, gavage, M/F, Fischer 344, Body Weight Changes: decrease + Blood Chemistry: TSH increase T3 decrease T4 decrease + Absolute Organ Weight: Right kidney increase + …",< 84 mg/kg-day
CCCCCc1cc(O)c2c(c1)OC(C)(C)[C@@H]1CCC(C)=C[C@@H]21 [Tetrahydrocannabinol],NOEL,"subchronic, duration: 13 weeks, gavage, M/F, Fischer 344, Deaths: Administration groups for 13 weeks(1/10 )(2/10 )(6/10 /10 ) + Clinical Observation: Convulsion Aggressive behavior: Dose is unknown …",< 5 mg/kg-day
NNC(N)=S [Thiosemicarbazide],NOEL,"subchronic, gavage, M, Sprague-Dawley, Functional Observational Battery: Tonic convulsion Hypersensitive reaction in touch response and tail pinch response + Body Weight Changes: …",0.4 mg/kg-day
